Biological target: Aβ1-42 (Homo sapiens, UniProt P05067)
Assay: FRET assay of Aβ1-42 oligomer (ADDL) assembly inhibition
Type: biochemical
Conditions: 0.2 μM FITC-Aβ(1-42) and 0.8 μM Aβ(1-42), 37° C., six concentrations from about 10 μM to about 0.03 μM
From the text: Fluorescence (or Förster) Resonance Energy Transfer (FRET) is a distance-dependent, non-radiative transfer of energy in which the de-excitation of one fluorophore (donor) is coupled to excitation of another fluorophore (acceptor). FRET occurs if (1) the quantum of energy emitted by a donor fluorophore corresponds to an acceptor fluorophore's excitation energy, (2) the orientations of donor and acceptor transition dipoles are nearly parallel and (3) the donor fluorescent emission spectrum overlaps the acceptor absorption spectrum.
In this assay, assembly of Aβ1-42 oligomer formation is monitored by FRET using N-terminal conjugates of fluorescein-Aβ1-42 as both the donor and acceptor fluorophore (fluorescein-fluorescein Ro˜45 Å). […] Inhibition of Aβ1-42 assembly is observed as the absence or attenuation of fluorescein quenching.
FRET and FP assays are performed in 384-well Corning Non-Binding Surface, black, opaque microtiter plates, and the assay buffer consists of 25 mM MOPS-Tris (pH 8.0) with 100 mM MgCl2. The assay volume, containing 0.2 μM FITC-Aβ(1-42) and 0.8 μM Aβ(1-42), is 50 μl and the temperature is 37° C. […] Kinetic traces are collected by recording fluorescence intensity and polarization readings every five minutes over about a three hour time course. […] Positive control reactions contain all buffer components in the absence of added small molecule or antibody reagents. To test for ADDL assembly inhibition, the compound was incubated with the peptide mixture at six concentrations from about 10 μM decreasing to about 0.03 μM.

Aβ1-42, sequence (P05067 672-713 limits assumed): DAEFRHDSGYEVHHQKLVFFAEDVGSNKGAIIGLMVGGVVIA

**Q.** Cc1ccc(C(=O)C/C(=N/NC(=O)c2sc3cc(F)ccc3c2Cl)C(F)(F)F)s1 [Compound 10, 3-chloro-6-fluoro-N′-(1,1,1-trifluoro-4-(5-methylthiophen-2-yl)-4-oxobutan-2-ylidene)benzo[b]thiophene-2-carbohydrazide] was tested. Which IC50 did it give?
**A.** Its IC50 is 8.3 µM.

**Q.** How did the IC50 turn out when O=C(N/N=C/c1oc2ccc([N+](=O)[O-])cc2c1O)c1ccccc1O [Compound 88, 2-hydroxy-N′-((3-hydroxy-5-nitro-benzofuran-2-yl)methylene) benzohydrazide] was run?
**A.** Its IC50 is 20.4 µM.

**Q.** With O=C(C/C(=N\NC(=O)c1sc2cc(F)ccc2c1Cl)C(F)(F)F)c1ccco1 [Compound 31, 3-chloro-6-fluoro-N′-(1,1,1-trifluoro-4-(furan-2-yl)-4-oxobulan-2-ylidene)benzo[b]thiophene-2-carbohydrazide] as the molecule, how does the IC50 read?
**A.** Its IC50 is 30.2 µM.

**Q.** How did the IC50 turn out when O=C(N/N=C/c1cc(OC(F)(F)F)ccc1O)c1ccccc1O [Compound 57, 2-hydroxy-N′-(2-hydroxy-5-(trifluoro-methoxy)benzylidene)benzohydrazide] was run?
**A.** Its IC50 is 6.3 µM.

**Q.** With O=C(C/C(=N/NC(=O)c1cc2ccccc2s1)C(F)(F)F)c1cccs1 [Compound 28, N′-(1,1,1-trifluoro-4-oxo-4-(thiophen-2-yl)butan-2-ylidene)benzo[b]thiophene-2-carbohydrazide] as the molecule, how does the IC50 read?
**A.** Its IC50 is 19.4 µM.

**Q.** Which IC50 does the source give for COc1ccc(O)c(/C=N/NC(=O)c2cc(Br)ccc2O)c1 [Compound 98, 5-bromo-2-hydroxy-N′-(2-hydroxy-5-methoxybenzylidene)benzohydrazide] here?
**A.** The IC50 was 31.9 µM.

**Q.** With COc1ccc(O)c(/C=N/NC(=O)c2c(O)cccc2F)c1 [Compound 95, 2-fluoro-6-hydroxy-N′-(2-hydroxy-5-methoxybenzylidene)benzohydrazide] as the molecule, how does the IC50 read?
**A.** The IC50 was 26.2 µM.

**Q.** How did the IC50 turn out when COc1ccc(O)c(/C=N/NC(=O)c2ccc(-n3c(C)ccc3C)cc2)c1 [Compound 56, 4-(2,5-dimethyl-1H-pyrrol-1-yl)-N′-(2-hydroxy-5-methoxy-benzylidene) benzohydrazide] was run?
**A.** Its IC50 is 6.1 µM.

**Q.** With Cc1ccc(O)c(/C=N/NC(=O)c2ccccc2O)c1 [Compound 68, 2-hydroxy-N′-(2-hydroxy-5-methyl-benzylidene)benzohydrazide] as the molecule, how does the IC50 read?
**A.** The IC50 was 9.2 µM.

**Q.** O=C(N/N=C/c1cc(Cl)cc(Br)c1O)c1ccccc1O [Compound 108, N′-(3-bromo-5-chloro-2-hydroxybenzylidene)-2-hydroxybenzohydrazide] was tested. Which IC50 did it give?
**A.** The IC50 was 41.7 µM.

**Q.** For O=C(N/N=C/c1cc(Cl)ccc1NS(=O)(=O)c1ccc(F)cc1F)c1ccccc1O [Compound 114, N-(4-chloro-2-((2-(2-hydroxybenzoyl)hydrazono)methyl)phenyl)-2,4-difluorobenzenesulfonamide], which IC50 is on record?
**A.** Its IC50 is 46.7 µM.

**Q.** Cc1nnsc1C(=O)N/N=C(/CC(=O)c1cccs1)C(F)(F)F [Compound 11, 4-methyl-N′-(1,1,1-trifluoro-4-oxo-4-(thiophen-2-yl)butan-2-ylidene)-1,2,3-thiadiazole-5-carbohydrazide] was tested. Which IC50 did it give?
**A.** Its IC50 is 8.4 µM.

**Q.** How did the IC50 turn out when O=C(N/N=C/c1ccc(N2CCOCC2)cc1O)c1ccccc1O [Compound 87, 2-hydroxy-N′-(2-hydroxy-4-morpholino-benzylidene)-benzohydrazide] was run?
**A.** Its IC50 is 18.3 µM.

**Q.** For CCOc1ccc(O)c(/C=N/NC(=O)c2ccccc2O)c1 [Compound 85, N′-(5-ethoxy-2-hydroxy-benzylidene)-2-hydroxy-benzohydrazide], which IC50 is on record?
**A.** The IC50 was 16 µM.

**Q.** How did the IC50 turn out when COc1cc(Cl)cc(/C=N/NC(=O)c2ccccc2O)c1O [Compound 91, N′-(5-chloro-2-hydroxy-3-methoxy-benzylidene)-2-hydroxy-benzohydrazide] was run?
**A.** The IC50 was 22.8 µM.

**Q.** With O=C(N/N=C/c1cccc(O)c1O)c1ccccc1O [Compound 86, N′-(2,3-dihydroxy-benzylidene)-2-hydroxy-benzohydrazide] as the molecule, how does the IC50 read?
**A.** The IC50 was 17.4 µM.

**Q.** Which IC50 does the source give for COc1ccc(O)c(/C=N/NC(=O)c2cc(Cl)ccc2O)c1 [Compound 84, 5-chloro-2-hydroxy-N′-(2-hydroxy-5-methoxy-benzylidene)benzohydrazide] here?
**A.** Its IC50 is 15.5 µM.

**Q.** How did the IC50 turn out when O=C(N/N=C/c1ccc(O)cc1O)c1ccccc1O [Compound 90, N′-(2,4-dihydroxybenzylidene)-2-hydroxy-benzohydrazide] was run?
**A.** The IC50 was 21.4 µM.

**Q.** How did the IC50 turn out when O=C(C/C(=N/NC(=O)c1ccccc1O)C(F)(F)F)c1ccc(Cl)s1 [Compound 19, N′-(4-(5-chlorothiophen-2-yl)-1,1,1-trifluoro-4-oxobutan-2-ylidene)-2-hydroxy benzohydrazide] was run?
**A.** The IC50 was 11.5 µM.

**Q.** Cc1ccc(C(=O)N/N=C/c2cccc(C)c2O)cn1 [Compound 53, N′-(2-hydroxy-3-methyl-benzylidene)-6-methylnicotino-hydrazide] was tested. Which IC50 did it give?
**A.** The IC50 was 4.6 µM.

**Q.** For O=C(C/C(=N/NC(=O)c1sc2cc(F)ccc2c1Cl)C(F)(F)F)c1ccc(Cl)s1 [Compound 23, 3-chloro-N′-(4-(5-chlorothiophen-2-yl)-1,1,1-trifluoro-4-oxobulan-2-ylidene)-6-fluorobenzo[b]thiophene-2-carbohydrazide], which IC50 is on record?
**A.** Its IC50 is 16 µM.

**Q.** CN1CCN(C(=O)C/C(=N/NC(=O)c2ccccc2O)C(F)(F)F)CC1 [Compound 6, 2-hydroxy-N′-(1,1,1-trifluoro-4-(4-methylpiperazin-1-yl)-4-oxobutan-2-ylidene) benzohydrazide] was tested. Which IC50 did it give?
**A.** The IC50 was 7.1 µM.

**Q.** With Cc1nnsc1C(=O)N/N=C/c1cc(Cl)ccc1O [Compound 111, N′-(5-chloro-2-hydroxybenzylidene)-4-methyl-1,2,3-thiadiazole-5-carbohydrazide] as the molecule, how does the IC50 read?
**A.** Its IC50 is 42.9 µM.

**Q.** How did the IC50 turn out when O=C(N/N=C/c1c(O)cccc1O)c1ccccc1O [Compound 41, N′-(2,6-dihydroxybenzylidene)-2-hydroxy benzohydrazide] was run?
**A.** Its IC50 is 2.3 µM.

**Q.** With Nc1ccc(Cl)cc1/C=N/NC(=O)c1ccccc1O [Compound 65, N′-(2-amino-5-chloro-benzylidene)-2-hydroxy-benzohydrazide] as the molecule, how does the IC50 read?
**A.** The IC50 was 7.5 µM.

**Q.** For O=C(N/N=C/c1cc(Cl)ccc1O)c1ccccc1O [Compound 59, N′-(5-chloro-2-hydroxy-benzylidene)-2-hydroxy-benzohydrazide], which IC50 is on record?
**A.** The IC50 was 6.5 µM.

**Q.** For O=C(N/N=C/c1cc(Cl)cc(Cl)c1O)c1ccccc1O [Compound 69, N′-(3,5-dichloro-2-hydroxy-benzylidene)-2-hydroxy-benzohydrazide], which IC50 is on record?
**A.** The IC50 was 9.2 µM.

**Q.** With O=C(N/N=C/c1cccc(F)c1O)c1ccccc1O [Compound 74, N′-(3-fluoro-2-hydroxy-benzylidene)-2-hydroxy-benzohydrazide] as the molecule, how does the IC50 read?
**A.** Its IC50 is 10.9 µM.

**Q.** For O=C(N/N=C/c1c(O)cccc1Br)c1ccccc1O [Compound 45, N′-(2-bromo-6-hydroxybenzylidene)-2-hydroxybenzo-hydrazide], which IC50 is on record?
**A.** Its IC50 is 3.3 µM.

**Q.** Which IC50 does the source give for O=C(N/N=C/c1cc(F)cc(Cl)c1O)c1ccccc1O [Compound 40, N′-(3-chloro-5-fluoro-2-hydroxybenzylidene)-2-hydroxy-benzohydrazide] here?
**A.** Its IC50 is 2.1 µM.

**Q.** With O=C(C/C(=N/NC(=O)c1cnn(-c2ccccc2)c1C(F)(F)F)C(F)(F)F)c1cccs1 [Compound 34, 1-phenyl-N′-(1,1,1-trifluoro-4-oxo-4-(thiophen-2-yl)butan-2-ylidene)-5-(trifluoromethyl)-1H-pyrazole-4-carbohydrazide] as the molecule, how does the IC50 read?
**A.** Its IC50 is 40.9 µM.

**Q.** For COc1ccc(O)c(/C=N/NC(=O)c2ccc(F)cc2O)c1 [Compound 67, 4-fluoro-2-hydroxy-N′-(2-hydroxy-5-methoxy-benzylidene)benzohydrazide], which IC50 is on record?
**A.** The IC50 was 8.3 µM.

**Q.** Which IC50 does the source give for COc1ccc(O)c(/C=N/NC(=O)c2ccc3ccccc3c2O)c1 [Compound 38, 1-hydroxy-N′-(2-hydroxy-5-methoxybenzylidene)-2-naphtho-hydrazide] here?
**A.** The IC50 was 1.2 µM.

From patent publication US20110098309A1, “METHODS OF INHIBITING THE FORMATION OF AMYLOID-BETA DIFFUSABLE LIGANDS USING ACYLHYDRAZIDE COMPOUNDS” (priority 2007, published 2011)
